Values belong to the compound of their own block, whether it stands above or below them.
Tests used:
[1] = test system: Vps34; test: in vitro inhibition of Vps34; format: biochemical
[2] = molecular target: p110γ (Homo sapiens, UniProt P48736); test: in vitro inhibition of class I PI3K p110γ; format: biochemical
p110γ, sequence (P48736 whole entry, species assumed): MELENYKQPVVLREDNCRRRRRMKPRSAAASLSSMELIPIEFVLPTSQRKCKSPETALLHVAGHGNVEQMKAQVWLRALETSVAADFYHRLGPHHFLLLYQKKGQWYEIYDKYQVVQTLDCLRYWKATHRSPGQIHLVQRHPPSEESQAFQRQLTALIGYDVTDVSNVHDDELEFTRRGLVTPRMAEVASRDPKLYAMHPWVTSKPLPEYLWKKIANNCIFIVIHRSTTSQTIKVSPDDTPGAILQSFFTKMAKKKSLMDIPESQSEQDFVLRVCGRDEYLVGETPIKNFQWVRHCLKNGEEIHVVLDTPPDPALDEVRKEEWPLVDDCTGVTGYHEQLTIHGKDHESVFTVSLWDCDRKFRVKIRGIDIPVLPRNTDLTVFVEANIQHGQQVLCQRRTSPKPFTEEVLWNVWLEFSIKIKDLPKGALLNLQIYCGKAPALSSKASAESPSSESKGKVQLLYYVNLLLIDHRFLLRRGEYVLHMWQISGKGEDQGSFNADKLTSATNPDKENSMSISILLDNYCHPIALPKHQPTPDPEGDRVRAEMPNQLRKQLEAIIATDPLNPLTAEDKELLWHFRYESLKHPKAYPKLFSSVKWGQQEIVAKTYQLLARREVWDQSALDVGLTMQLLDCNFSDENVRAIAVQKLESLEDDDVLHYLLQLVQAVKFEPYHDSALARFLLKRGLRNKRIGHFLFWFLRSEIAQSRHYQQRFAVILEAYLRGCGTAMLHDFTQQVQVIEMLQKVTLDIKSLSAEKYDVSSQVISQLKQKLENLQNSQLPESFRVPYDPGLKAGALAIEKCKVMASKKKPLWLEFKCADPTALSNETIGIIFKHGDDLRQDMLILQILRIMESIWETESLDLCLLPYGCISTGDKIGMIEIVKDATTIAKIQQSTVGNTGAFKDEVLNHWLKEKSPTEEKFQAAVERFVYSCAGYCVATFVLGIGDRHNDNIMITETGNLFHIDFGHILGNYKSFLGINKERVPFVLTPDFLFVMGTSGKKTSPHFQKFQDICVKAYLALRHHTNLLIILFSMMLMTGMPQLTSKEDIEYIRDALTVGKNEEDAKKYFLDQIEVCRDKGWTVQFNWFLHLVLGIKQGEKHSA

Structure (SMILES): Cn1cnc(N)c2ncnc1-2 [3-MA, 3-methyladenine, reference compound]
specificity for Vps34 versus other PI3Ks (in words) ([1]; in vitro assays, Fig. S8, Fig. 4G): preference for Vps34

Structure (SMILES): CC(=O)Nc1nc(C)c(-c2ccc(Cl)c(S(=O)(=O)NCCO)c2)s1 [PIK-93, reference compound]
IC50 of PIK-93 relative to PIK-90 (in words) ([1]; Fig. S8): lower IC50

change in IC50 relative to PIK-93 (in words) ([1]; analogues of PIK-93, Fig. S9): little change in IC50
IC50 ([1]; read-out: IC50 for Vps34, in vitro, Fig. S9): 0.088 µM
increase in IC50 for PI3Kγ (p110γ) compared to PIK93 ([2]; ratio of IC50 values vs PIK93): > 10 fold
IC50 ([2]; read-out: IC50 for the most potently inhibited Class I PI3K (p110γ), in vitro, Fig. S9): 0.061 µM
Structure (SMILES): COc1ccc(-c2sc(NC(C)=O)nc2C)cc1S(=O)(=O)NCCO [PT21]

From PMC2860105 (Science (New York, N.Y.), 2010)
